# Laboratory results taken from PubChem BioAssay (NCI).
#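 How tested: cells in 96-well plates exposed to compound for 48 hours at five concentrations. GI50 = concentration required for 50% inhibition of growth. TGI marks complete inhibition of growth.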
# How the values were obtained:
# Test in all cases: inhibition of tumour cell growth, NCI panel, 48 h
# SK-MEL-5 melanoma = tested on: SK-MEL-5 melanoma
# A549 NSCLC = tested on: A549 NSCLC
# KM12 colon = tested on: KM12 colon
# SNB-19 CNS = tested on: SNB-19 CNS
# HCT-116 colon = tested on: HCT-116 colon
# NCI-H522 lung = tested on: NCI-H522 lung
# LOX IMVI melanoma = tested on: LOX IMVI melanoma
# RXF 393 renal = tested on: RXF 393 renal
# SF-268 CNS = tested on: SF-268 CNS
# SF-539 CNS = tested on: SF-539 CNS
SMILES,GI50 (SK-MEL-5 melanoma) [µM],TGI (SK-MEL-5 melanoma) [µM],GI50 (A549 NSCLC) [µM],TGI (A549 NSCLC) [µM],GI50 (KM12 colon) [µM],TGI (KM12 colon) [µM],GI50 (SNB-19 CNS) [µM],TGI (SNB-19 CNS) [µM],GI50 (HCT-116 colon) [µM],TGI (HCT-116 colon) [µM],GI50 (NCI-H522 lung) [µM],TGI (NCI-H522 lung) [µM],GI50 (LOX IMVI melanoma) [µM],TGI (LOX IMVI melanoma) [µM],GI50 (RXF 393 renal) [µM],TGI (RXF 393 renal) [µM],GI50 (SF-268 CNS) [µM],TGI (SF-268 CNS) [µM],GI50 (SF-539 CNS) [µM],TGI (SF-539 CNS) [µM]
COc1c2ccccc2c(O)c2c(=O)c(C(=O)O)cn(C)c12,> 100,> 100,> 100,> 100,> 100,> 100,> 100,> 100,> 100,> 100,> 100,> 100,> 100,> 100,80.3,> 100,> 100,> 100,35.9,> 100
Cc1ccc(-c2ccc(Nc3c4ccccc4nc4ccccc34)cc2)cn1,–,16.5,–,10.3,–,19.1,–,> 100,–,10.3,–,–,–,6.54,–,–,–,> 100,–,21.1
CC(=O)O[C@H]1[C@@H]2[C@@H]3[C@@H](C[C@H]1C)[C@@H](C)CO[C@@]1(C)CC/C=C(/C)C[C@@H]2O[C@@H]31,–,> 100,–,> 100,–,> 100,–,> 100,–,> 100,–,> 100,–,> 100,–,> 100,–,> 100,–,> 100
CCOC(=O)/C=C1\SC(=Nc2ccc(C#N)cc2)N(CCN2C(=O)/C(=C/C(=O)OCC)SC2=Nc2ccc(C#N)cc2)C1=O,5.43,18.9,15.4,51.2,1.17,5.48,2.12,12.9,0.441,2.38,6.56,24.3,0.585,1.28,2.61,9.39,1.94,16.1,3.53,12.8
O=C(Oc1ccc([N+](=O)[O-])cc1)N1CCN(Cc2cccc(Oc3ccccc3)c2)CC1,18.5,58.7,> 73.6,> 100,62.5,> 100,> 100,> 100,44.9,> 100,> 50.9,> 100,> 82.6,> 100,> 100,> 100,> 100,> 100,> 100,> 100
COc1ncc(-c2nc3c(n2C(C)C)[C@H](c2ccc(Cl)cc2)N(c2cc(Cl)cn(C)c2=O)C3=O)c(OC)n1,11.7,24.1,17.9,> 100,41.2,> 100,61.5,> 100,22,> 100,69.2,> 100,11.2,> 100,–,–,71.5,> 100,64.5,> 100
COc1cc(/C=C/C(=O)c2cc(F)c(Cl)cc2Cl)cc(OC)c1OC,49.6,> 100,39.2,> 100,10.5,26.4,39.6,> 100,12.6,25.1,–,–,25.1,91.2,17.2,62.2,68.9,> 100,28.1,> 100
Cc1ccc(NC(=O)CC(=O)n2nc(-c3ccccc3)c(N=Nc3ccc(Cl)cc3)c2-c2ccccc2)cc1,–,> 100,–,64.4,–,> 100,–,> 100,–,33.8,–,–,–,29.9,–,–,–,> 100,–,85.6
CC1CCCC(C(O)CC2CC(=O)N(c3ccccc3)C(=O)C2)C1=O (configuration not stated),–,–,–,> 100,–,> 100,–,> 100,–,> 100,–,> 100,–,> 100,–,> 100,–,> 100,–,> 100
C/C(=N\NC(=O)CC(=O)Nc1ccc(Cl)cc1)c1cc2ccccc2oc1=O,–,> 100,–,> 100,–,> 100,–,> 100,–,> 100,–,> 100,–,> 100,–,> 100,–,–,–,> 100
Cc1ccc(S(=O)(=O)Oc2ccc3c4c(c(=O)oc3c2)CCCCC4)cc1,2.75,> 100,> 100,> 100,7.16,> 100,> 100,> 100,6,> 100,> 100,> 100,> 100,> 100,–,–,> 100,> 100,6.77,> 100
NC1=NC(c2ccccc2)N=C(Nc2ccccc2)N1 (configuration not stated),93,> 100,> 100,> 100,31.6,> 100,> 100,> 100,> 100,> 100,–,–,> 100,> 100,> 100,> 100,55.1,> 100,> 100,> 100
Cn1cc2c(n1)c(N/N=C/c1ccccc1)nn1nnnc21,–,> 100,–,> 100,–,–,–,> 100,–,> 100,–,–,–,> 100,–,> 100,–,> 100,–,> 100
CN(C)CCNC(=O)c1cccc2cc3ccccc3nc12,1.25,2.54,–,–,2.07,10.2,2.21,> 21.6,0.531,4.75,1.32,3.12,0.802,3.48,1.42,4.13,1.65,8.18,1.78,8.21
